Source: paper PMC5640605, “Fructose-1,6-bisphosphate couples glycolytic flux to activation of Ras” (Nature Communications, 2017)

Target: T1, Sos1 (Homo sapiens, UniProt Q07889)
T1 construct: catalytic part of Sos1 (residues 564–1049)
T1 sequence (Q07889 564-1049): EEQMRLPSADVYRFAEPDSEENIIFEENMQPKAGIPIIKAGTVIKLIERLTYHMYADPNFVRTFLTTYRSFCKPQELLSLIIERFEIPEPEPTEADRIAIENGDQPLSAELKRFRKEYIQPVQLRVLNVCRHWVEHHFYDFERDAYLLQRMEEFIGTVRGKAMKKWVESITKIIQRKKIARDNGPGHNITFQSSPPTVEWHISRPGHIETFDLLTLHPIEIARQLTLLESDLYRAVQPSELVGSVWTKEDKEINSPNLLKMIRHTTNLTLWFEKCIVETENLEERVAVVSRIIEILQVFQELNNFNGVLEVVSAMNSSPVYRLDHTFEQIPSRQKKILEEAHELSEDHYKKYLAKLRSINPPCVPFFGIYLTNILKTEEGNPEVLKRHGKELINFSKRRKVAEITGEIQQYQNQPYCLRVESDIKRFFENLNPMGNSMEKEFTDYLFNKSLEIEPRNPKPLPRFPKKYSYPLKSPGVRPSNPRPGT
Experiment: fluorescence-based thermal shift assay (SYPRO Orange) with Langmuir Kd fit; supported by BLI of Sos1/H-Ras complex dissociation (KDapp […])
Format: binding

## O=P(O)(O)OC[C@H]1OC(O)(COP(=O)(O)O)[C@@H](O)[C@@H]1O (stereo partly shown) [Fru1,6bisP]
  Kd: 17.5 ± 2.2 mM
